Laboratory results reported in patent publication US8637535B2, “Polymorphic and other crystalline forms of cis-FTC” (Gilead Sciences, Inc., priority 2001, dated 2014).
One block for each molecule: values may come before it.

How the values were obtained:
[1] = system: HIV; conditions: cited from earlier work
[2] = solubility values greater than 100 mg/mL are considered highly soluble
Method: Equilibrium Solubility: Equilibrium solubility values were obtained using an excess of solid in a stoppered flask shaken in a temperature-controlled water bath at 25 C for 52 hours. Residual solid material was identified postequilibrium by hot-stage microscopy and PXRD. The supernatant was filtered across 0.45-μm membrane filters prior to dilution for HPLC analysis.

[3] = heated to 160° C., cooled to 25° C., reheated at 10° C./min
Method: Thermal events for Form I (−)-cis-FTC upon melting and subsequent cooling to room temperature were observed by DSC. A 5.5500 mg sample of Form I (−)-cis-FTC was heated to 160° C., that is just above the melting temperature for Form I, and then cooled back to 25° C.

[4] = hand trituration 5 minutes or Fitzpatrick mill; DSC and PXRD
Method: Milling: (−)-cis-FTC was milled in a Fitzpatrick mill at high speed (4000 RPM), hammers forward with a 000-band screen. The drug was passed through the filter once and collected in a plastic bag.
Two batches of milled Form I (−)-cis-FTC were prepared: one by hand trituration in a mortar and pestle for 5 minutes, another by milling in a Fitzpatrick mill.

[5] = below 130° C.
[6] = system: HIV; conditions: racemic mixture; cited from earlier work

SMILES: Nc1nc(=O)n([C@@H]2CS[C@H](CO)O2)cc1F [(−)-(cis)-FTC, 4-amino-5-fluoro-1-(2-(hydroxymethyl)-1,3-oxathiolan-5-yl)-2(1H)-pyrimidinone (2R-cis)]
HIV activity [1]: potent

solubility category [2]: highly soluble
change in potency by HPLC [3]: no change in potency
effect of milling on crystal form [4]: does not affect the crystal form
thermodynamic stability among phases [5]: most stable phase
SMILES: Nc1nc(=O)n([C@@H]2CS[C@H](CO)O2)cc1F [Form I, β-L-2-hydroxymethyl-5-(5-fluorocytosin-1-yl)-1,3-oxathiolane]

SMILES: Nc1ccn(C2CSC(CO)O2)c(=O)n1 (racemic) [BCH-189, 2-hydroxymethyl-5-(cytosin-1-yl)-1,3-oxathiolane]
activity against HIV relative to AZT [6]: approximately the same activity against HIV as AZT
